# Structures can show the parent of a compound that is named as a salt.
# Tests used:
# [1] = test system: platelet rich plasma (PRP), thrombin-induced platelet aggregation; assay: Inhibitory effects on platelet aggregation using platelet rich plasma (thrombin-induced); assay type: cell-based; details: Homo sapiens, 0.1 h, thrombin 0.5-1.5 units/ml, area under aggregation curve over 6 minutes, read-out: Thr IC50
# Description: Blood was sampled from a healthy adult who had taken no drugs for one week, and 3.8% citric acid (a ratio of 1:9 with respect to the blood) was added as an anticoagulant. The mixture was then centrifuged at 100 g for 10 minutes at room temperature to yield platelet rich plasma (PRP). The PRP-removed blood was further centrifuged at 1000 g for 10 minutes to yield platelet poor plasma (PPP). The number of platelet was counted using a multi-parameter automatic hemocyte counter (K4500, Sysmex), and the PRP was diluted to approximately 300,000/μl with the PPP. The platelet aggregation activity was determined in the following manner using an Aggregometer (MC Medical). GPRP-NH2 (final concentration 1 mM, 25 μl) was added as a fibrin polymerization inhibitor to the PRP (175 μl), after which Ca-free Tyrode solution (control) or the test compound suspension (25 μl) at different concentrations was added, incubation was performed at 37° C. for 3 minutes and then 25 μl of thrombin at the minimum concentration required to produce maximum aggregation (final concentration: optimum concentration among 0.5-1.5 units/ml) was added, for initiation of platelet aggregation. […] After addition of thrombin, the aggregation reaction was examined for 6 minutes and the areas under the aggregation curves were compared to determine the inhibition ratio, from which the IC50 value was calculated.
# [2] = target: T1, PAR1 thrombin receptor (Homo sapiens, UniProt P25116); assay: Receptor binding assay ([3H] high affinity TRAP, platelet membrane); details: displacement of 25 nM [3H] high affinity TRAP from platelet membrane, 37° C., 1 hour; read-out: RBA IC50
# T1 construct: centrifuged at 40,000 g for 60 minutes to yield platelet membrane; from tissue; host or cells: platelet membrane from donor blood
# T1 sequence (P25116 22-425): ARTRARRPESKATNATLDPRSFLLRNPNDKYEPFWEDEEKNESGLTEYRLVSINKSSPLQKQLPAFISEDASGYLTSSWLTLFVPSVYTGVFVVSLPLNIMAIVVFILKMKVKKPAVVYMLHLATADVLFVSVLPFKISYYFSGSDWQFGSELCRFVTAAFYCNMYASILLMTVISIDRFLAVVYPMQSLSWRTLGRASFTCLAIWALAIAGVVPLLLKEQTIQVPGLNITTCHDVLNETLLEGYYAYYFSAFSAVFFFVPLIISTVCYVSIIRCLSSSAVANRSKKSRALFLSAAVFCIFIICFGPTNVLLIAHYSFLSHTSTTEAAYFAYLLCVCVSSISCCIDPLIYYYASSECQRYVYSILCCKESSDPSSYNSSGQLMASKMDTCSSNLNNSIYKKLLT
# Description: Blood was sampled from a healthy adult who had taken no drugs for one week, and 3.8% citric acid (a ratio of 1:9 with respect to the blood) was added as an anticoagulant. The mixture was then centrifuged at 100 g for 10 minutes at room temperature to yield platelet rich plasma (PRP). The platelet precipitate obtained, by centrifuging the PRP was homogenized with a Dounce homogenizer, and then centrifuged at 40,000 g for 60 minutes to yield platelet membrane. The platelet membrane was suspended in a solution prepared by adding DMSO (dimethyl sulfoxide) at 1% concentration to Buffer 1: a 50 mM Tris-HCl buffer containing 10 mM MgCl2 and 1 mM EGTA (ethylene glycol tetraacetic acid), and the suspension was stored at −80° C. Bovine albumin and DMSO were added to Buffer 1 at 0.1% and 20%, respectively, to make a preparation solution for the test compound. […] Next, 30 μl of liquid scintillator was added for measurement of the radioactivity of the plate using a Top Counter (Packard), the value of the radioactivity in the presence of the test compound minus non-specific binding portion was divided by the specific binding value (the value of the binding in the absence of the compound minus the non-specific binding portion) to determine the binding ratio, from which the IC50 value was calculated. […]
# [3] = test system: Vascular smooth muscle cells (rSMC); assay: Rat smooth muscle cell proliferation assay (thrombin-stimulated, MTT); assay type: cell-based; details: 48 h, thrombin 0.1 unit/ml, 2 days, MTT OD 590 nm, read-out: Rat SMC IC50
# Description: Vascular smooth muscle cells (rSMC) were isolated from male SD rat aorta by the explant method. DMEM medium (Sigma) containing 10% fetal bovine serum (GibcoBRL), streptomycin and penicillin was used as the proliferation medium, and subculture was carried out at 37° C. in the presence of 5% CO2. Culture was initiated after adding 100 μl of rSMC suspension in proliferation medium at a concentration of 1×10^4 cells/ml, to a 96-well plate. After 3 days, cells were rinsed twice with 100 μl of DMEM medium, the medium was exchanged with 100 μl of DMEM medium containing 0.1% albumin (starvation medium), and serum starvation was initiated. […]
# Upon adding 20 μl of MTT (3-[4,5-dimethylthiazol-2-yl]-2,5-diphenyltetrazolium bromide) dissolved in DPBS to 7.5 mg/ml, incubation was continued for 4 hours. […] As an index of cell proliferation, the OD 590 nm was measured using a plate reader (EL340, BIO-TEK Instruments Inc.), and the control OD value (OD value in the absence of the test compound) minus the OD value in the presence of the test compound was divided by the control OD value minus the blank OD value (OD value without thrombin stimulation) to determine the inhibition ratio, from which the value was calculated.
smiles,measurement,setting,value
"CCCC1CN(CC(=O)c2cc(N(C)S(C)(=O)=O)c(O)c(C(C)(C)C)c2)C(=N)[C@@H]1c1ccccc1 (stereo in doubt) [Example 3, N-{3-tert-Butyl-2-hydroxy-5-[2-((3S,4S)-2-imino-3-phenyl-4-propyl-pyrrolidin-1-yl)-acetyl]-phenyl}-N-methyl-methanesulfonamide hydrobromide]",IC50,[1],2300 nM
same,IC50,[2],660 nM
same,IC50,[3],2500 nM

# — patent publication US7476688B2, “Cyclic amidine derivatives” (EISAI R&D Management Co., Ltd., priority 2001, dated 2009)
